Results taken from the supplement of paper PMC10307832.

Columns and labels:
Assay in all cases: relative viability (nuclei count vs DMSO), 5 days (fraction); higher = more cells survive
BI-D1870 + Navitoclax = compound: CC(C)CCN1c2nc(Nc3cc(F)c(O)c(F)c3)ncc2N(C)C(=O)C1C [BI-D1870] + CC1(C)CCC(c2ccc(Cl)cc2)=C(CN2CCN(c3ccc(C(=O)NS(=O)(=O)c4ccc(N[C@H](CCN5CCOCC5)CSc5ccccc5)c(S(=O)(=O)C(F)(F)F)c4)cc3)CC2)C1 [Navitoclax] (partner 0.5 µM)
Method in brief: (§1)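 A single step with final 0.05% Triton X-100, 1% formaldehyde and 1 ug/ml Hoechst fixed the cells and stained nuclei 5 days after treatment. Lung cancer cell lines in 1536-well plates had been treated by pin tool the day after seeding with one drug alone or a fixed anchor-drug dose plus five library-drug doses (not always all listed) in √10 steps, and nuclei were counted on 4× images. Relative viability is the ratio of nuclei in treated wells to nuclei in vehicle wells, taken as the median of duplicate plates.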

Zebularine + Phenformin = compound: O=c1ncccn1[C@@H]1O[C@H](CO)[C@@H](O)[C@H]1O [Zebularine] + N=C(N)NC(=N)NCCc1ccccc1 [Phenformin] (partner 250 µM)
Method in brief: as §1

BI-D1870 = compound: CC(C)CCN1c2nc(Nc3cc(F)c(O)c(F)c3)ncc2N(C)C(=O)C1C [BI-D1870]
Method in brief: (§2)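 Lung cancer cell lines in 1536-well plates were exposed by pinning to five library-drug doses (not always all listed) √10 apart, following an overnight hold at 37 °C. MetaXpress counted Hoechst-stained nuclei from 4× images taken after 5 days without medium change. Viability is the median ratio of treated-well to vehicle-well nuclei across plates. Plates required control CV below 25% and at least one doubling.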

Zebularine = compound: O=c1ncccn1[C@@H]1O[C@H](CO)[C@@H](O)[C@H]1O [Zebularine]
Method in brief: as §2

Cell Line | relative viability (BI-D1870 + Navitoclax; first compound 0.04 µM) | relative viability (BI-D1870 + Navitoclax; first compound 0.1265 µM) | relative viability (BI-D1870 + Navitoclax; first compound 0.4 µM) | relative viability (BI-D1870 + Navitoclax; first compound 1.265 µM) | relative viability (BI-D1870 + Navitoclax; first compound 4 µM) | relative viability (Zebularine + Phenformin; first compound 1 µM) | relative viability (Zebularine + Phenformin; first compound 3.162 µM) | relative viability (Zebularine + Phenformin; first compound 10 µM) | relative viability (Zebularine + Phenformin; first compound 31.62 µM) | relative viability (Zebularine + Phenformin; first compound 100 µM) | relative viability (BI-D1870; 0.04 µM) | relative viability (BI-D1870; 0.1265 µM) | relative viability (BI-D1870; 0.4 µM) | relative viability (BI-D1870; 1.265 µM) | relative viability (BI-D1870; 4 µM) | relative viability (Zebularine; 1 µM) | relative viability (Zebularine; 3.162 µM) | relative viability (Zebularine; 10 µM) | relative viability (Zebularine; 31.62 µM) | relative viability (Zebularine; 100 µM)
LXF-289 | 0.951 | 0.923 | 0.94 | 0.936 | 0.895 | 0.512 | 0.503 | 0.41 | 0.406 | 0.26 | 1.01 | 0.946 | 0.973 | 1.02 | 0.846 | 1.06 | 0.889 | 0.931 | 0.831 | 0.346
NCI-H2009 | 1.22 | 1.12 | 1.15 | 1.09 | 0.865 | 0.515 | 0.483 | 0.425 | 0.435 | 0.336 | 1.11 | 0.967 | 1.02 | 0.858 | 0.513 | 1.05 | 0.987 | 0.793 | 0.704 | 0.358
NCI-H2405 | 1.17 | 0.774 | 0.977 | 0.844 | 0.671 | 0.425 | 0.378 | 0.352 | 0.435 | 0.335 | 1.07 | 0.985 | 1.03 | 1.07 | 0.909 | 1.02 | 0.992 | 0.871 | 0.968 | 0.726
NCI-H1755 | 1.06 | 0.945 | 0.995 | 1.07 | 1.01 | 0.671 | 0.612 | 0.592 | 0.684 | 0.53 | 1.03 | 1.01 | 1.03 | 1.07 | 1.01 | 1.12 | 0.981 | 1.02 | 1.04 | 0.717
HCC-78 | 0.736 | 0.825 | 0.81 | 0.987 | 0.778 | 0.678 | 0.728 | 0.496 | 0.74 | 0.387 | 0.952 | 1 | 0.97 | 1.16 | 0.875 | 1.07 | 0.945 | 0.626 | 0.916 | 0.387
LOU-NH91 | 0.854 | 0.631 | 0.721 | 0.662 | 0.522 | 0.674 | 0.717 | 0.437 | 0.693 | 0.549 | 1.05 | 0.945 | 0.895 | 1.04 | 0.729 | 0.976 | 1.01 | 0.875 | 0.979 | 0.725
NCI-H3122 | 1 | 0.927 | 1.1 | 0.993 | 1.04 | 0.434 | 0.389 | 0.332 | 0.385 | 0.352 | 1.03 | 0.927 | 0.951 | 1.02 | 0.903 | 1.03 | 0.987 | 0.875 | 1.01 | 1.04
HCC-827 | 1.07 | 1.03 | 1.02 | 1.02 | 0.941 | 0.486 | 0.396 | 0.45 | 0.379 | 0.278 | 1.05 | 1.05 | 1.04 | 1.03 | 1.01 | 1.08 | 1.03 | 0.851 | 0.877 | 0.47
SK-LU-1 | 1 | 1.09 | 0.852 | 0.54 | 0.0905 | 0.633 | 0.552 | 0.313 | 0.493 | 0.33 | 1.07 | 0.91 | 0.972 | 0.997 | 0.669 | 1.07 | 0.989 | 0.626 | 0.739 | 0.544
NCI-H1975 | 1.12 | 1.22 | 1.14 | 1.06 | 0.54 | 0.416 | 0.417 | 0.229 | 0.221 | 0.148 | 1.15 | 0.904 | 0.99 | 0.914 | 0.851 | 1 | 0.859 | 0.519 | 0.468 | 0.258
NCI-H1651 | 1.15 | 0.946 | 0.935 | 1.08 | 0.778 | 0.347 | 0.401 | 0.273 | 0.369 | 0.256 | 0.997 | 0.911 | 0.945 | 1.04 | 0.914 | 1.04 | 0.989 | 0.718 | 0.911 | 0.57
NCI-H441 | 0.478 | 0.575 | 0.692 | 0.642 | 0.338 | 0.803 | 0.73 | 0.366 | 0.309 | 0.396 | 1.08 | 0.922 | 0.888 | 1.1 | 1.17 | 1.26 | 0.852 | 0.502 | 0.309 | 0.272
LCLC-97TM1 | 0.407 | 0.398 | 0.574 | 0.364 | 0.613 | 0.401 | 0.413 | 0.322 | 0.256 | 0.272 | 1.3 | 0.978 | 0.756 | 1.1 | 0.841 | 1.03 | 0.913 | 0.652 | 0.335 | 0.143
NCI-H727 | 0.459 | 0.362 | 0.416 | 0.607 | 0.501 | 0.628 |  |  | 0.693 | 0.528 | 1.1 | 0.888 | 0.934 | 0.79 | 0.91 | 0.906 | 0.811 | 0.726 | 0.976 | 0.92
NCI-H1355 | 0.959 | 0.959 | 0.988 | 1.05 | 1.03 | 0.507 | 0.45 | 0.425 | 0.403 | 0.294 | 1.06 | 0.917 | 0.958 | 1.11 | 0.861 | 1.06 | 0.955 | 0.749 | 0.62 | 0.33
HOP-62 | 1.06 | 1.01 | 0.995 | 1.2 | 1.01 | 0.827 | 0.653 | 0.286 | 0.282 | 0.266 | 1.18 | 1.01 | 0.965 | 1.03 | 0.949 | 1.11 | 0.911 | 0.564 | 0.287 | 0.213
NCI-H2085 | 1.14 | 1.07 | 1.11 | 1.06 | 0.865 | 0.761 | 0.663 | 0.566 | 0.673 | 0.539 | 1.06 | 0.95 | 1.01 | 0.984 | 0.746 | 1 | 0.949 | 0.829 | 0.972 | 0.662
